Columns and labels:
Male C57BL6/j mice [1] = experiment: PCP-induced locomotor activity in mice (phencyclidine model of schizophrenia); type: in vivo; settings: 200 mg/kg i.p., PCP 5 mg/kg s.c., distance traveled over 60 minutes, FIG. 2
From the text: PCP-induced increases in locomotor ambulation are a widely accepted animal model of schizophrenia. This model is based on the evidence that phencyclidine induces a schizophrenia-like syndrome in humans including increased motor behaviors, disruption of cognition and impairment of working memory (Steinpreis R E (1996) Behav Br Res. 74:45-55; Abi-Saab et al. (1998) Pharmacopsychiatry, 31:104-109). Further, it has also been shown that antipsychotic drugs that are effective in the treatment of schizophrenia reduce the locomotor activating effect of PCP (Gleason & Shannon (1997) Psychopharmacology, 129:79-84). […]
(§1) The effects of compounds on PCP- or amphetamine-induced locomotor activation in mice were tested. […] Locomotor activity (ambulations) was monitored by a videotracking system (VideoTrack, Viewpoint, Champagne au Mont d'Or, France) that recorded the ambulatory movements of mice. […] On test days, test compounds (200 mg/kg i.p. (intraperitoneal)) or vehicle were administered immediately before the PCP (5 mg/kg s.c. (sub-cutaneous), amphetamine (3.0 mg/kg s.c.) or saline injection. Mice were placed into the locomotor boxes immediately after the PCP, amphetamine or saline vehicle injection and their locomotor activity, defined as the distance traveled in centimeters (cm), was measured for 60 minutes. […]

Male C57BL6/j mice [2] = experiment: Amphetamine-induced locomotor activity in mice (amphetamine model of schizophrenia); type: in vivo; settings: 200 mg/kg i.p., amphetamine 3.0 mg/kg s.c., distance traveled over 60 minutes, FIG. 3
From the text: Amphetamine-induced increases in locomotor ambulation are well known and are widely used as a model of the positive symptoms of schizophrenia. This model is based on evidence that amphetamine increases motor behaviors and can induce a psychotic state in humans (Yui et al. (2000) Ann NY Acad Sci 914:1-12). Further, it is well known that amphetamine-induced increases in locomotor activity are blocked by antipsychotics drugs that are effective in the treatment of schizophrenia (Arnt (1995) Eur J Pharmacol 283:55-62). […]
as §1
Statistical analyses were performed using GraphPad PRISM statistical software (GraphPad, San Diego, Calif., USA). Data were analyzed using unpaired t-tests. […]

native rat mGluR2 = biological target: T1, native rat mGluR2 (Rattus norvegicus, UniProt P31421); experiment: [35S]GTPγS binding assay using cortical rat brain membranes; type: biochemical; settings: FIG. 1
T1 construct: from tissue; host or cells: rat brain cortex membranes (Sprague-Dawley rats, Charles River Laboratories)
T1 sequence (P31421 19-872): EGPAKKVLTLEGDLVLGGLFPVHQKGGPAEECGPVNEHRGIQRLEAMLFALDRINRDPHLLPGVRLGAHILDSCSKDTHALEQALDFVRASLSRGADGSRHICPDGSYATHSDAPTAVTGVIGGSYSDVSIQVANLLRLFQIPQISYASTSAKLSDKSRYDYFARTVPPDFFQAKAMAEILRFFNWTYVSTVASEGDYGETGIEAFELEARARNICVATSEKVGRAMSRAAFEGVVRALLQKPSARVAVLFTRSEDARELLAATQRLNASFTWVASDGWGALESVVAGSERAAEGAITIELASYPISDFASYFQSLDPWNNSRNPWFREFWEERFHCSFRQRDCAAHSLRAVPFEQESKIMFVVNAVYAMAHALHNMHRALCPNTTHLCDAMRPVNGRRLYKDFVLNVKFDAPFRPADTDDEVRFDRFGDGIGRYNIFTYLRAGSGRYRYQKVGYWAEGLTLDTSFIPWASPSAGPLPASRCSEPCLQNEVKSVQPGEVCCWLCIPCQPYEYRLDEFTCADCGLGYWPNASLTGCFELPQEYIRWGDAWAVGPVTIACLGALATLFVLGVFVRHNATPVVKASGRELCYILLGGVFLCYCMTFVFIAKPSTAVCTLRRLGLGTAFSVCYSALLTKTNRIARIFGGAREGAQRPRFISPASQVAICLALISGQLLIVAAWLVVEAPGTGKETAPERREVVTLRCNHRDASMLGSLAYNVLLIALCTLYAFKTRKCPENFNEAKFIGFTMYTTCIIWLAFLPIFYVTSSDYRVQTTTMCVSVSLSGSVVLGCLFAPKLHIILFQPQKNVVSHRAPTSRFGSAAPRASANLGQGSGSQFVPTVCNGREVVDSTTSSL
From the text: The [^35S]GTPγS binding is a functional membrane-based assay used to study G-protein coupled receptor (GPCR) function. This method is using a binding assay to assess the initial step in receptor-mediated G protein activation in membranes prepared from cells expressing recombinant GPCR or using membranes from discrete area of the rat brain. In brief, the assay is measuring the activation of G proteins by catalyzing the exchange of guanosine 5′-diphosphate (GDP) by guanosine 5′-triphosphate (GTP) at the α subunit. The GTP-bounded G proteins dissociate into two subunits, Gα-GTP and Gβγ, which in turn regulate intracellular enzymes and ion channels. GTP is rapidly hydrolysed by the Gα-subunit (GTPases) and the G protein is deactivated and ready for new GTP exchange cycle (Harper (1998) Curr Protoc Pharmacol 2.6.1-10, John Wiley & Sons, Inc.). [^35S]GTPγS, a non-hydrolyzed analogue of GTP, is used for this purpose.
This method is widely used to study receptor activation of G protein in membranes prepared from rat brain tissue, including mGluR2 receptors (Schaffhauser et al 2003, Pinkerton et al, 2004). mGluR2 receptors are expressed in the rat brain cortex (Mutel et al (1998) J. Neurochem. 71:2558-64; Schaffhauser et al (1998) Mol. Pharmacol. 53:228-33) and are coupled to Gαi-protein, a preferential coupling for this method.
[^35S]GTPγS binding assay using cortical rat brain membranes preparation was used and adapted from Schaffhauser et al ((2003) Mol. Pharmacol. 4:798-810) for the detection of the positive allosteric modulator properties of the compounds of this invention on native rat mGluR2. In order to eliminate the possible interference with group III Gαi-protein coupled mGluRs (mGluR4, mGluR7, mGluR8; mGluR6 is not expressed in the cortex (Laurie et al (1997) Neuropharmacol. 36:145-52)), the potentiation of the response to a selective mGluR2 agonist, such as DCG-IV (Cartmell et al. (1998) Br. J. Pharmacol. 123(3):497-504) or LY379268 (Monn et al. (1999) J. Med. Chem 42:1027-40), by compounds described in the present invention was performed.
Cortices were dissected out from brains of 200-300 g Sprague-Dawley rats (Charles River Laboratories, L'Arbresle, France). Tissues were homogenized in 6 volumes (vol/wt) of 10% sucrose at 4° C. using a glass-teflon homogenizer. The homogenate was centrifuged at 1250 g for 10 min, and the supernatant was centrifuged at 40,000 g for 20 min (4° C.). The pellet was resuspended in 25 ml water using a Polytron disrupter (Kinematica AG, Luzern, Switzerland) and centrifuged for 10 min at 3000 g. (4° C.). The supernatant was centrifuged at 40,000 g for 20 min (4° C.). The supernatant was discarded and the pellet washed twice by resuspension in 10 volumes 5 mM HEPES-KOH, pH 7.4. The homogenate was frozen and thawed twice and centrifuged at 40,000 g for 20 min. The final pellet was resuspended in 5 mM HEPES-KOH, pH 7.4 and stored at −80° C. before its use. Protein concentration was determined by the Bradford method (Bio-Rad protein assay, Reinach, Switzerland) with bovine serum albumin as standard.
Measurement of mGluR2 positive allosteric modulators properties in rat cortical membranes was performed as follows: rat cortical membrane (1.5 μg) were incubated in 96-well microplates for 15 min at 30° C. in assay buffer (50 mM HEPES pH 7.4, 100 mM NaCl, 5 mM MgCl2, 10 μM GDP, 10 μg/ml saponin, EGTA 0.2 mM) with increasing concentrations of positive allosteric modulator (from 1 nM to 10 μM) and a minimal concentration of DCG-IV or LY379268, a selective mGluR2 agonist, that has been determined in previous experiments and that corresponds to the EC20, a concentration that gives 20% of the maximal response of the agonist, and is in accordance to published data (Pin et al. (1999) Eur. J. Pharmacol. 375:277-294). […]

melting point: 88 °C
ability to increase the [GTPγ35S] binding induced by DCG-IV (native rat mGluR2; 10 μM compound with 50 nM DCG-IV, compared to agonist alone): significantly potentiated
Compound: COc1ccc(-c2ccc(=O)n(Cc3ccc(Cl)cc3F)c2)cc1 [4-16]
effect on the increase in locomotor activity induced by PCP (Male C57BL6/j mice [1]): significantly attenuated
effect on the increase in locomotor activity induced by amphetamine (Male C57BL6/j mice [2]): significantly attenuated
agonistic activity in the absence of DCG-IV (native rat mGluR2; 10 μM compound without 50 nM DCG-IV, compared to buffer value): no statistically significant agonistic activity

Source: patent US8399493B2, “Pyridinone derivatives and their use as positive allosteric modulators of mGluR2-receptors” (Janssen Pharmaceuticals, Inc., priority 2004, dated 2013)
